Broadly, the EC50 is the concentration that produces a half-maximal response.

From US20230075856A1, “CYCLIC SULFAMIDE COMPOUNDS FOR TREATMENT OF HBV” (Assembly Biosciences, Inc., priority 2018, published 2023) come the findings set out here.

Some results are limits rather than exact numbers.

One experiment concerns HBV viral load production from HepAD38 cells. As to the kind of experiment: Viral production from HepAD38 cells: viral load in supernatant by qPCR of the HBV core sequence. The conditions noted are these: 5 days incubation, qPCR of supernatant HBV DNA vs DMSO control, read-out: viral load lowering EC50 (Activity). The format is cell-based. Summed up: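 HepAD38 cells seeded at 50,000/well in tetracycline-free medium with 2% FBS, treated with compounds (final top concentration 10 μM) for 5 days at 37 °C. Supernatant HBV DNA quantified by TaqMan qPCR of core sequence against HBV DNA standards, relative to DMSO controls; EC50 by four-parameter logistic fit.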
Consider `CN1C(C(=O)Nc2ccc(F)c(Cl)c2)CC(C(=O)NCc2cnc(-c3ccccc3Cl)s2)NS1(=O)=O` (single isomer, unassigned) [Compound 912-ISOMER-B, N3-(3-chloro-4-fluoro-phenyl)-N5-[[2-(2-chlorophenyl)thiazol-5-yl]methyl]-2-methyl-1,1-dioxo-1,2,6-thiadiazinane-3,5-dicarboxamide], for which the EC50 was less than 50 nM. Still for that read-out and setting: the figure for `CN1C(C(=O)Nc2ccc(F)c(Cl)c2)CC(C(=O)NCc2cc(-c3ccccc3Cl)no2)NS1(=O)=O` (single isomer, unassigned; isomer-b) [1025-ISOMER-B, N3-(3-chloro-4-fluoro-phenyl)-N5-[[3-(2-chlorophenyl)isoxazol-5-yl]methyl]-2-methyl-1,1-dioxo-1,2,6-thiadicarboxamidediazinane-3,5-] is 100 to 10000 nM; for “N3-(3-chloro-4-fluoro-phenyl)-N5-[(S)-(2-chlorothiazol-5-yl)-phenyl-methyl]-2-methyl-1,1-dioxo-1,2,6-thiadiazinane-3,5- [1066-ISOMER-B]” it is less than 50 nM. Same read-out and setting: the figure for `COc1ccc(-c2cnc(CNC(=O)C3CC(C(=O)Nc4ccc(F)c(Cl)c4)N(C)S(=O)(=O)N3)s2)cc1` (single isomer, unassigned) [Compound 932-ISOMER-B, N3-(3-chloro-4-fluoro-phenyl)-N5-[[5-(4-methoxyphenyl)thiazol-2-yl]methyl]-2-methyl-1,1-dioxo-1,2,6-thiadiazinane-3,5-dicarboxamide] is less than 50 nM; for `CN1C(C(=O)Nc2ccc(F)c(Cl)c2)CC(C(=O)NCc2cnc(-c3ccc(O)cc3)s2)NS1(=O)=O` (single isomer, unassigned; isomer-a) [Compound 924-ISOMER-A, N3-(3-chloro-4-fluroo-phenyl)-N5-[[2-(4-hydroxyphenyl)thiazol-5-yl]methyl]-2-methyl-1,1-dioxo-1,2,6-thiadiazinane-3,5-dicarboxamide] it is 100 to 10000 nM; for `CN1C(C(=O)Nc2ccc(F)c(Cl)c2)CC(C(=O)NCc2cnc(-c3ccc(C#CCN4CCCCC4)cc3)s2)NS1(=O)=O` (single isomer, unassigned) [Compound 946-ISOMER-B, N3-(3-chloro-4-fluoro-phenyl)-2-methyl-1,1-dioxo-N5-[[2-[4-[3-(1-piperidyl)prop-1-ynyl]phenyl]thiazol-5-yl]methyl]-1,2,6-thiadiazinane-3,5-dicarboxamide] it is 100 to 10000 nM.

`Cc1c(CNC(=O)C2CC(C(=O)Nc3ccc(F)c(Cl)c3)N(C)S(=O)(=O)N2)nnn1-c1ccccc1` (single isomer, unassigned; isomer-b) [1148-ISOMER-B, N3-(3-chloro-4-fluoro-phenyl)-2-methyl-N5-[(5-methyl-1-phenyl-triazol-4-yl)methyl]-1,1-dioxo-1,2,6-thiadiazinane-3,5-dicarboxamide]: the EC50 is 100 to 10000 nM. The same measure, in the same setting: as for “N3-(3-chloro-4-fluoro-phenyl)-2-methyl-1,1-dioxo-N5-[(5-phenylisoxazol-3-yl)methyl]- [1149-ISOMER-B]”, the figure is 100 to 10000 nM.

The experiment is the same for the next values; noted with them: Hepatitis B virus, HePAD38, 120 h, 5 days incubation, qPCR of supernatant HBV DNA vs DMSO control, read-out: viral load lowering EC50 (Activity).
Turning to `COc1ccc(CNC(=O)C2CC(C(=O)Nc3ccc(F)c(Cl)c3)N(C)S(=O)(=O)N2)cc1` (single isomer, unassigned) [Compound 717-ISOMER-A, N3-(3-chloro-4-fluoro-phenyl)-N5-[(4-methoxyphenyl)methyl]-2-methyl-1,1-dioxo-1,2,6-thiadiazinane-3,5-dicarboxamide], the EC50 is less than 50 nM. Still for that read-out and setting: as for `CN1C(C(=O)Nc2ccc(F)c(Cl)c2)CC(C(=O)NCc2cnc(-c3ccc(C#CCN4CCCCC4)cc3)s2)NS1(=O)=O` (single isomer, unassigned) [Compound 946-ISOMER-A, N3-(3-chloro-4-fluoro-phenyl)-2-methyl-1,1-dioxo-N5-[[2-[4-[3-(1-piperidyl)prop-1-ynyl]phenyl]thiazol-5-yl]methyl]-1,2,6-thiadiazinane-3,5-dicarboxamide], the figure is less than 50 nM; as for `CN1C(C(=O)Nc2ccc(F)c(Cl)c2)CC(C(=O)NC2CCN(c3ccnc(C#N)c3)CC2)NS1(=O)=O` (stereo not shown) [Compound 1089], less than 50 nM. On to `Cc1cccc(CNC(=O)C2CC(C(=O)Nc3ccc(F)c(C#N)c3)N(C)S(=O)(=O)N2)n1` (stereo not shown) [Compound 831], for which the EC50 lay in the range of 100 to 10000 nM. Same read-out and setting: the figure for `CN1C(C(=O)Nc2ccc(F)c(Cl)c2)CC(C(=O)NCc2nc(C(F)(F)F)cs2)NS1(=O)=O` (stereo not shown) [Compound 1202] is 100 to 10000 nM; for `COC(=O)N1CCC(NC(=O)C2CC(C(=O)Nc3ccc(F)c(Cl)c3)N(CC(F)(F)F)S(=O)(=O)N2)CC1` (stereo not shown) [Compound 893] it is less than 50 nM. Turning to `CN1C(C(=O)Nc2ccc(F)c(Cl)c2)CC(C(=O)NCc2cnc(-n3cccn3)s2)NS1(=O)=O` (stereo not shown) [Compound 1157], the EC50 lay in the range of 50 to 100 nM. Turning to `CN1C(C(=O)Nc2ccc(F)c(Cl)c2)CC(C(=O)N[C@@H](c2ccccc2)c2cnc(-c3ccccc3)s2)NS1(=O)=O` (single isomer, unassigned) [1067-ISOMER-B], the EC50 lay in the range of 100 to 10000 nM. On the same count and under the same terms, as for `Cc1c(CNC(=O)C2CC(C(=O)Nc3ccc(F)c(Cl)c3)N(C)S(=O)(=O)N2)cnn1C` (single isomer, unassigned) [Compound 740-ISOMER-A, N3-(3-chloro-4-fluoro-phenyl)-N5-[(1,5-dimethylpyrazol-4-yl)methyl]-2-methyl-1,1-dioxo-1,2,6-thiadiazinane-3,5-dicarboxamide], the figure is less than 50 nM; as for `CN1C(C(=O)Nc2ccc(F)c(Cl)c2)CC(C(=O)NC2CCN(c3cc(CN4CCCCC4)ccn3)CC2)NS1(=O)=O` (single isomer, unassigned) [Compound 975-ISOMER-A, N3-(3-chloro-4-fluoro-phenyl)-2-methyl-1,1-dioxo-N5-[1-[4-(1-piperidylmethyl)-2-pyridyl]-4-piperidyl]-1,2,6-thiadiazinane-3,5-dicarboxamide], less than 50 nM. Consider `COCCN1C(C(=O)Nc2ccc(F)c(Cl)c2)CC(C(=O)NC2CCN(C(=O)OC)CC2)NS1(=O)=O` (stereo not shown) [Compound 896], for which the EC50 lay within 100 to 10000 nM.

In the case of `CN1C(C(=O)Nc2ccc(F)c(Cl)c2)CC(C(=O)NCc2cnc(C(F)(F)F)s2)NS1(=O)=O` (single isomer, unassigned) [Compound 498-ISOMER-A, N3-(3-chloro-4-fluoro-phenyl)-2-methyl-1,1-dioxo-N5-[[2-(trifluoromethyl)thiazol-5-yl]methyl]-1,2,6-thiadiazinane-3,5-dicarboxamide], the EC50 lay within 100 to 10000 nM. The same measure, in the same setting: as for `Cc1nc(-c2ccccc2F)sc1CNC(=O)C1CC(C(=O)Nc2ccc(F)c(Cl)c2)N(C)S(=O)(=O)N1` (stereo not shown) [Compound 1016], the figure is less than 50 nM. On the same count and under the same terms, the figure for `CN1C(C(=O)Nc2ccc(F)c(Cl)c2)CC(C(=O)N[C@@H]2CCN(c3ccnc(Cl)c3)C2)NS1(=O)=O` (stereo partly shown) [Compound 1055-R] is less than 50 nM; for `CN1C(C(=O)Nc2ccc(F)c(Cl)c2)CC(C(=O)NCc2ncc(-c3ccccc3)s2)NS1(=O)=O` (single isomer, unassigned) [Compound 931-ISOMER-A, N3-(3-chloro-4-fluoro-phenyl)-2-methyl-1,1-dioxo-N5-[(5-phenylthiazol-2-yl)methyl]-1,2,6-thiadiazinane-3,5-dicarboxamide] it is 100 to 10000 nM; for `CN1C(C(=O)Nc2ccc(F)c(Cl)c2)CC(C(=O)NCC2CCCCC2)NS1(=O)=O` (stereo not shown) [Compound 1160] it is 100 to 10000 nM.

As for `CN1C(C(=O)Nc2ccc(F)c(Cl)c2)CC(C(=O)NC2CCCc3nc(Br)sc32)NS1(=O)=O` (stereo not shown) [Compound 978], the EC50 is less than 50 nM.
